According to patent US20050069948A1, “Screening method” (priority 2002, published 2005):

Experiments:
male Zucker fatty rat = assay: Urinary albumin excretion in Zucker fatty rats; format: in vivo
Procedure: (§1) To the control group and the normal control group, i.e., male Zucker lean rats (ZL rat, Charles River Japan Inc.) with the same age, 0.5% methylcellulose 100 cP (Vehicle) was administered once per day everyday. Eight weeks after administration, urine was accumulated for 24 hours, and then the urinary albumin excretion was determined using A/G B Test Wako (Wako Pure Chemical Industries). Nine weeks after administration, the kidneys were collected and stored at −80° C., and subsequently the kidneys were crushed to extract the total RNA. The primers and fluorescent probe were prepared on the basis of the mRNA sequence previously reported, and then the amount of each of individual mRNAs was determined using ABI PRISM 7700 (Applied Biosystems) by the real time quantitative RT-PCR method.

[1] = tested on: Egr-1, TGF-β1, PDGF-B, fibronectin and α1 (I) collagen mRNA in the kidney of Zucker Fatty Rats; assay: mRNA expression levels in the kidney of Zucker fatty rats (real time quantitative RT-PCR); format: in vivo, rat
Procedure: as §1

Egr-1 mRNA = Egr-1 mRNA expression in rat glomerular mesangial cells after FCS or AII stimulus (RT-PCR); format: cell-based; conditions: 30 minutes after FCS (20%) stimulus; Candesartan 10^−5 M added 5 minutes before; relative value, before stimulus = 1; n = 3, Mean
Procedure: Glomerular mesangial cells ([…] 7) isolated and cultivated from a male Sprague-Dawley rat (SD rat, Japan Crea) of the age of 4 weeks were cultivated in DMEM medium containing 20% fetal calf serum (FCS) for 4 days, and then the cells were cultivated in DMEM containing 0.2% bovine serum albumin for 3 days. To the cells after cultivation, FCS (20%) or angiotensin II (AII) (10^-6M) was added, and then the resulting mixture was reacted at 37° C. for 30 minutes. The AII type I receptor antagonist Candesartan of 10^-5 M as the final concentration was added to the medium 5 minutes prior to the stimulation of FCS or AII. Thirty minutes after FCS or AII stimulus, total RNA was extracted. The primers and fluorescent probe were prepared on the basis of the mRNA sequence previously reported, and subsequently the level of Egr-1 mRNA expression was determined using ABI PRISM 7700 (Applied Biosystems) by the real time quantitative RT-PCR method.

Egr-1 protein = Egr-1 protein expression in rat glomerular mesangial cells after bFGF stimulus (Western blotting); format: cell-based; conditions: ODN 20 μM for 24 hours, one hour after bFGF (3 ng/ml) stimulus, relative value, control = 1, n = 2-3, Mean
From the text: (§2) Glomerular mesangial cells (passege 4-5) isolated and cultivated from a male SD rat with 4 weeks age were cultivated for 3 to 4 days in DMEM medium containing 20% fetal bovine serum to sub-confluence, and the medium was changed to DMEM containing a 0.2% bovine serum albumin and then the resulting material was subjected to serum starvation. Forty-eight hours after initiation of the serum starvation, Egr-1 AS-ODN (SEQ ID NO: 7) or a Control-ODN (the scrambled ODNs that were matched with the AS-ODN in size and the number of bases, both synthesized by BIOGNOSTIK Corp.) with a concentration of 20 μM was added to the medium and the resultant material was allowed to stand in a CO2 incubator for 24 hours. Thereafter the material was stimulated with a basic fibroblast growth factor (bFGF) (3 ng/ml), and then was reacted at 37° C. for 1 to 2 hours. A protein was extracted from the cell one hour after bFGF stimulus, and total RNA was extracted from a cell two hours after bFGF stimulus. […] The brightness accumulation value of the band thus detected was calculated by a CS Analyzer 1.00a (ATTO). Also, the mRNA expression level of the tissue factor was determined by making the primer and fluorescent probe on the basis of the mRNA sequence previously reported and by using ABI PRISM 7700 (Applied Biosystems) by means of the quantitative RT-PCR method.

tissue factor mRNA = assay: Tissue factor mRNA expression in rat glomerular mesangial cells after bFGF stimulus (quantitative RT-PCR); format: cell-based; conditions: ODN 20 μM for 24 hours, two hours after bFGF (3 ng/ml) stimulus, relative value, control = 1, n = 2-3, Mean
From the text: as §2

[2] = tested on: Glomerular mesangial cells; assay: Cytotoxicity by transfection in rat glomerular mesangial cells; format: cell-based; conditions: ODN 20 μM
human Egr-1 (human) = human Egr-1 (human) (UniProt P18146); assay: plate assay: Egr-1 from HEK293 lysate captured on biotinylated double-stranded DNA with the Egr-1 binding sequence (SEQ ID NO: 10) on a streptavidin plate, detected with anti-Egr-1 polyclonal antibody and HRP anti-rabbit IgG
[3] = ZF rat, nine weeks after administration, relative value, ZL rat = 1, n = 8-9, Mean

Egr-1 protein, sequence (P08154 whole entry): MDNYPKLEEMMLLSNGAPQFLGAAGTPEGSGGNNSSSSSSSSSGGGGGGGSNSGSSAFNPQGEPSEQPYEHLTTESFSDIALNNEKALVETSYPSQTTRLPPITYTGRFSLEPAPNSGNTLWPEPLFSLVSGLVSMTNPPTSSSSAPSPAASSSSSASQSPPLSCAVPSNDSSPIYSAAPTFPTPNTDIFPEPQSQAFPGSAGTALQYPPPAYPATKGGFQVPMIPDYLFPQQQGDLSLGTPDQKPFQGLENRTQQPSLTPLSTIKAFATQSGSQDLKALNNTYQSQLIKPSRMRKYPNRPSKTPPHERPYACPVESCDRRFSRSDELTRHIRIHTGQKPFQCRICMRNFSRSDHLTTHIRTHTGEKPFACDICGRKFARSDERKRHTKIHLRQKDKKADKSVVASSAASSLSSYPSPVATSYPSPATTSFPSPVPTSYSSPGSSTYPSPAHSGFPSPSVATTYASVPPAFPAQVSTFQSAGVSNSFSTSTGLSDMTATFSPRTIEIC
human Egr-1 (human), sequence (P18146 whole entry): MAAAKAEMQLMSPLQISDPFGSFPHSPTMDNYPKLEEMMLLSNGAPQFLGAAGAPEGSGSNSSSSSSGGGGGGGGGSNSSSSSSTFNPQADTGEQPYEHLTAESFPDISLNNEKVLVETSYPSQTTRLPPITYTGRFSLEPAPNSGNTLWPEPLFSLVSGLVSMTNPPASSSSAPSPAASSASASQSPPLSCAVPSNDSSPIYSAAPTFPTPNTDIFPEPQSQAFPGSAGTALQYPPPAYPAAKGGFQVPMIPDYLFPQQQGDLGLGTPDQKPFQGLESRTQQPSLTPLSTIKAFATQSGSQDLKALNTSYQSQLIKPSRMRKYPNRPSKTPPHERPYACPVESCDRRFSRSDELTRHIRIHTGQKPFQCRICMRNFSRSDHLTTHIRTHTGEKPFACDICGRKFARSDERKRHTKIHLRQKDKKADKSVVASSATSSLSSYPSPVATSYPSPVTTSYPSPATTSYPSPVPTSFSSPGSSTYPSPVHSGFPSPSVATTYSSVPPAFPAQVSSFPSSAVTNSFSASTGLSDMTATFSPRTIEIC

With `CCOc1nc2cccc(C(=O)OC(C)OC(=O)OC3CCCCC3)c2n1Cc1ccc(-c2ccccc2-c2nnn[nH]2)cc1` (stereo not drawn) [Candesartan cilexetil] the Urinary albumin excretion (male Zucker fatty rat; ZF rat, orally once per day, eight weeks after administration, 24 hours urine, n = 8-9, Mean) was 61.7 mg/day, the “Increase in the urinary albumin excretion (in words)” value (male Zucker fatty rat; Zucker fatty rat, oral administration once per day) was “inhibition of an increase” and the “Increase in the level of Egr-1, TGF-β1, PDGF-B, fibronectin and α1(I) collagen mRNA expression in the kidney (in words)” value ([1]; Zucker fatty rat, oral administration once per day for 9 weeks) was “inhibits the increase”.
`CCOc1nc2cccc(C(=O)O)c2n1Cc1ccc(-c2ccccc2-c2nnn[nH]2)cc1` [Candesartan] was tested, and the “Egr-1 mRNA expression level in the kidney” value [1, 3] was 1.3, the “Fibronectin mRNA expression level in the kidney” value [1, 3] was 1.1 and the “PDGF-B mRNA expression level in the kidney” value [1, 3] was 1.0. For the same compound, the “TGF-β1 mRNA expression level in the kidney” value [1, 3] was 1.2, the “α1 (I) collagen mRNA expression level in the kidney” value [1, 3] was 1.6 and the “Egr-1 mRNA expression level” value (Egr-1 mRNA) was 18.4.
In the case of “AS-ODN: Egr-1 antisense oligodeoxynucleotide (SEQ ID NO: 7), synthesized by BIOGNOSTIK Corp. (antisense GCGGGGTGCAGGGGCACACT; DNA, backbone and methylation of C not given here)”, the Egr-1 protein expression (Egr-1 protein) is reported as 2.0, the Egr-1 protein expression (Egr-1 protein; listed as Egr-1 AS-ODN) is reported as “suppressed” and the “Tissue factor mRNA expression” value (tissue factor mRNA) is reported as 1.1. For the same compound, the “Tissue factor mRNA expression” value (tissue factor mRNA; listed as Egr-1 AS-ODN) was “almost completely suppressed” and the Cytotoxicity by transfection [2] was “not observed”.
Work on “anti-Egr-1 antigen (rabbit, polyclonal antibody, SANTA CRUZ Corp., sc-189)” yielded an absorbance at 450 nm (absorbance (450 nm)) (human Egr-1 (human)) of 0.751.
